Earlier results, collected in patent US20070042451A1, “Glycine decarboxylase complex as a herbicidal target” (BASF Aktiengesellschaft, priority 2003, published 2007).

Tested on: glycine decarboxylase complex
Settings: Navarre and Wolpert 1995

Q: With victorine as the substance, how does the “in vitro inhibition of the GDC activity” value read?
A: Its value is “inhibition of the GDC activity”.
